Measurements: patent publication US4642332A, “Effective hormonal peptides: D-3-Pal^6 -LHRH” (The Board of Regents, The University of Texas System, priority 1985, dated 1987)

Key:
[1] = tested on: pituitary cells from 21 day old rats; experiment: In vitro pituitary incubate assay (release of LH and FSH); type: cell-based, rat; details: for FSH released into medium (ng/ml) ± SEM / LH ng/ml medium ± SEM: Table IV, mean of 9
Procedure: The data in Tables IV and V are from the in vitro assay of the peptides with the pituitary incubate. This assay measures the release of LH and FSH in an in vitro system with pituitary cells from 21 day old rats. See, Bowers, C. Y. et al. on the inhibitory effects of leutinizing hormone releasing hormone analogs. Endocrinology, 106: 674 (1980).
The abbreviations are as follows: sc-subcutaneous, SEM-standard error of the mean; NS-not significant; ng-nanogram, and ml-milliliter. The p value represents the population coefficient .rho.(rho) which signifies whether a sample coefficient is significant or a chance deviation from zero.

21 day old female rats = experiment: In vivo assay in rats for release of LH and FSH; set-up: species or system rat; details: for Serum FSH ng/ml SEM / Serum LH ng/ml SEM: Table IX, blood sample at ±60 minutes; for Serum FSH ng/ml SEM / Serum LH ng/ml SEM / FSH ng/ml Serum ± SEM at +120 min / LH ng/ml Serum ± SEM at +120 min: mean of 6; for FSH ng/ml Serum ± SEM at +120 min / LH ng/ml Serum ± SEM at +120 min: Table X; for +2 hrs LH ± SEM ng/ml serum / FSH ± SEM ng/ml serum (+2 hrs) / +3 hrs LH ± SEM ng/ml serum / FSH ± SEM ng/ml serum (+3 hrs): Table XI, mean 5-6
Procedure: In vivo rat assay performed by a modification of the method of Bowers, C. Y. et al. Endocrinology, 106, 674 (1980). 21 day old female rats were injected sc with saline or peptide. Blood samples for the RIAs of LH and FSH were collected at +15, +60, +120, or +180 minutes. (Tables VI-XI).

[2] = at 0.1 ng, statement on Table IV
[3] = Table VI, 1.75 ng/rat sc, mean of 9
[4] = Table VI, 5 ng/rat sc, mean of 9
[5] = Table VI, 15 ng/rat sc, mean of 9
[6] = Table VI, 50 ng/rat sc, mean of 9
[7] = Table VIII first section (time not given), 15 ng/rat sc, mean of 5-6
[8] = Table VIII first section (time not given), 150 ng/rat sc, mean of 5-6
[9] = Table VIII, ±60 min after injection, 15 ng/rat sc, mean of 5-6
[10] = Table VIII, ±60 min after injection, 150 ng/rat sc, mean of 5-6

CC(C)C[C@H](NC(=O)[C@@H](Cc1cccnc1)NC(=O)[C@H](Cc1ccc(O)cc1)NC(=O)[C@H](CO)NC(=O)[C@H](Cc1c[nH]c2ccccc12)NC(=O)[C@H](Cc1c[nH]cn1)NC(=O)[C@@H]1CCC(=O)N1)C(=O)N[C@@H](CCCNC(=N)N)C(=O)N1CCC[C@H]1C(=O)NCC(N)=O [D-Pal^6 -LHRH, pyroGlu-His-Trp-Ser-Tyr-D-3-Pal-Leu-Arg-Pro-GlyNH2]
FSH released into medium (ng/ml) ± SEM ([1]; dosage 0.03 ng/ml medium): 1062 ± 394
LH ng/ml medium ± SEM ([1]; dosage 0.03 ng/ml medium): 73 ± 10 ng/mL
FSH released into medium (ng/ml) ± SEM ([1]; dosage 0.1 ng/ml medium): 3109 ± 486
LH ng/ml medium ± SEM ([1]; dosage 0.1 ng/ml medium): 345 ± 72 ng/mL
FSH released into medium (ng/ml) ± SEM ([1]; dosage 0.3 ng/ml medium): 5126 ± 967
LH ng/ml medium ± SEM ([1]; dosage 0.3 ng/ml medium): 811 ± 182 ng/mL
FSH released into medium (ng/ml) ± SEM ([1]; dosage 1.0 ng/ml medium): 9637 ± 1490
LH ng/ml medium ± SEM ([1]; dosage 1.0 ng/ml medium): 1439 ± 233 ng/mL
activity for the release of LH, D-Pal^6 -LHRH compared with D-Qal^6 -LHRH [1, 2]: essentially equivalent
release of FSH, D-Pal^6 -LHRH compared with D-Qal^6 -LHRH [1, 2]: same essential equivalents
potency, D-Pal^6 -LHRH compared with D-Trp^6 -LHRH ([1]; inferred from equivalence with D-Qal^6 -LHRH): essentially equipotent
Serum FSH ng/ml SEM (21 day old female rats; 50 ng/rat sc): 3099 ± 361 ng/mL
Serum LH ng/ml SEM (21 day old female rats; 50 ng/rat sc): 120 ± 16 ng/mL
Serum FSH ng/ml SEM (21 day old female rats; 150 ng/rat sc): 3064 ± 677 ng/mL
Serum LH ng/ml SEM (21 day old female rats; 150 ng/rat sc): 122 ± 19 ng/mL
Serum FFSH ng/ml ± SEM (21 day old female rats; [3]): 471 ± 128 ng/mL
Serum LH ng/ml ± SEM (21 day old female rats; [3]): 1.5 ± 0.3 ng/mL
Serum FFSH ng/ml ± SEM (21 day old female rats; [4]): 738 ± 71 ng/mL
Serum LH ng/ml ± SEM (21 day old female rats; [4]): 7 ± 1 ng/mL
Serum FFSH ng/ml ± SEM (21 day old female rats; [5]): 1270 ± 140 ng/mL
Serum LH ng/ml ± SEM (21 day old female rats; [5]): 43 ± 7 ng/mL
Serum FFSH ng/ml ± SEM (21 day old female rats; [6]): 2267 ± 342 ng/mL
Serum LH ng/ml ± SEM (21 day old female rats; [6]): 103 ± 8 ng/mL
Serum FSH ng/ml ± SEM (21 day old female rats; [7]): 1711 ± 644 ng/mL
Serum LH ng/ml ± SEM (21 day old female rats; [7]): 36 ± 9 ng/mL
Serum FSH ng/ml ± SEM (21 day old female rats; [8]): 1591 ± 588 ng/mL
Serum LH ng/ml ± SEM (21 day old female rats; [8]): 111 ± 16 ng/mL
Serum FSH ng/ml ± SEM (21 day old female rats; [9]): 1992 ± 379 ng/mL
Serum LH ng/ml ± SEM (21 day old female rats; [9]): 81.0 ± 17 ng/mL
Serum FSH ng/ml ± SEM (21 day old female rats; [10]): 6432 ± 2216 ng/mL
Serum LH ng/ml ± SEM (21 day old female rats; [10]): 106.0 ± 3 ng/mL
FSH ng/ml Serum ± SEM at +120 min (21 day old female rats; 50 ng/rat sc): 3251 ± 485 ng/mL
LH ng/ml Serum ± SEM at +120 min (21 day old female rats; 50 ng/rat sc): 111 ± 26 ng/mL
FSH ng/ml Serum ± SEM at +120 min (21 day old female rats; 150 ng/rat sc): 5293 ± 686 ng/mL
LH ng/ml Serum ± SEM at +120 min (21 day old female rats; 150 ng/rat sc): 216 ± 46 ng/mL
+2 hrs LH ± SEM ng/ml serum (21 day old female rats; 50 ng sc): 108 ± 17 ng/mL
FSH ± SEM ng/ml serum (+2 hrs) (21 day old female rats; 50 ng sc): 1727 ± 222 ng/mL
+3 hrs LH ± SEM ng/ml serum (21 day old female rats; 50 ng sc): 20 ± 2.3 ng/mL
FSH ± SEM ng/ml serum (+3 hrs) (21 day old female rats; 50 ng sc): 1312 ± 163 ng/mL
+2 hrs LH ± SEM ng/ml serum (21 day old female rats; 150 ng sc): 144 ± 27 ng/mL
FSH ± SEM ng/ml serum (+2 hrs) (21 day old female rats; 150 ng sc): 2362 ± 293 ng/mL
+3 hrs LH ± SEM ng/ml serum (21 day old female rats; 150 ng sc): 38 ± 6.3 ng/mL
FSH ± SEM ng/ml serum (+3 hrs) (21 day old female rats; 150 ng sc): 1617 ± 143 ng/mL
release of LH (in words) (21 day old female rats; dosage of 5 ng): significantly released LH
FSH released (21 day old female rats; dosage of 15 ng): 1270 ± 140 ng
LH released relative to LHRH (21 day old female rats; dosage of 50 ng, corrected for the level of LH before addition of the peptides): ~50 times
potency compared with LHRH when tested biologically (21 day old female rats; summary statement, test not specified): significantly more potent than LHRH itself

CCNC(=O)[C@@H]1CCCN1C(=O)[C@H](CCCNC(=N)N)NC(=O)[C@H](CC(C)C)NC(=O)[C@@H](Cc1c[nH]c2ccccc12)NC(=O)[C@H](Cc1ccc(O)cc1)NC(=O)[C@H](CO)NC(=O)[C@H](Cc1c[nH]c2ccccc12)NC(=O)[C@H](Cc1c[nH]cn1)NC(=O)[C@@H]1CCC(=O)N1 [D-Trp^6 Pro^9 Net--LHRH, pyroGlu--His--Trp--Ser--Tyr-- D-Trp--Leu--Arg--Pro--EA**]
LH ng/ml Serum ± SEM ± 15 min (21 day old female rats; Table VII, dosage 100 mg/rat sc (so in the source), ± 15 min): 59 ± 10 ng/mL
LH ng/ml Serum ± SEM ± 60 min (21 day old female rats; Table VII, dosage 100 mg/rat sc (so in the source), ± 60 min): 228 ± 41 ng/mL
+2 hrs LH ± SEM ng/ml serum (21 day old female rats; 150 ng sc): 184 ± 29 ng/mL
FSH ± SEM ng/ml serum (+2 hrs) (21 day old female rats; 150 ng sc): 2260 ± 294 ng/mL
+3 hrs LH ± SEM ng/ml serum (21 day old female rats; 150 ng sc): 103 ± 9 ng/mL
